Reference: ChEMBL document CHEMBL1201862, “PubChem BioAssay data set” (2004)
Activity calls are given as the source filed them.

What was measured:
[1] = Vero E6 cell cytotoxicity, dose response, cytotoxicity control for non-replicating M. tuberculosis project, secondary assay (AID 492998); format: functional, VeroE6; details: Vero C1008
cells = format: functional
[2] = THP-1 cell cytotoxicity, dose response, cytotoxicity control for non-replicating M. tuberculosis project (AID 489025); format: functional
Coagulation factor XII = target: T1, Coagulation factor XII (Homo sapiens, UniProt P00748); format: functional;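 also: activated factor XIIa alpha cleaving a fluorogenic AMC peptide substrate; inhibitor potency from loss of enzyme activity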
T1 sequence (P00748 whole entry): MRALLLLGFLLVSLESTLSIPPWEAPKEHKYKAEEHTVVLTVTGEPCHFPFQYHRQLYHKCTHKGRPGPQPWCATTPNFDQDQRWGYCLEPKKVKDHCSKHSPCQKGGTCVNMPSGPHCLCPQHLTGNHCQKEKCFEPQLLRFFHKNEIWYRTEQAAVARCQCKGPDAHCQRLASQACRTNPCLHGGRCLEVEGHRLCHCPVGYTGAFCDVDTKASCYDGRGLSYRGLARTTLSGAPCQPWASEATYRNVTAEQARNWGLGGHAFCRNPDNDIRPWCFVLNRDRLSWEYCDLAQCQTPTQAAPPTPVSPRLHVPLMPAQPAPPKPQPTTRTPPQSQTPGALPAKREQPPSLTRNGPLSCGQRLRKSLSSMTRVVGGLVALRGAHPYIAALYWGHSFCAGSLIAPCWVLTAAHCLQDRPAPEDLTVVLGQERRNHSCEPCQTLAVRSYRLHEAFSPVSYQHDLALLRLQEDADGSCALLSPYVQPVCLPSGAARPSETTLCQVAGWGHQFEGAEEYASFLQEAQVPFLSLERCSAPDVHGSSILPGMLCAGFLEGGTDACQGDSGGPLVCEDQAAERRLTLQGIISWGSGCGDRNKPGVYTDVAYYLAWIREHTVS

[3] = target: Serine/threonine-protein phosphatase PP1-alpha catalytic subunit (Homo sapiens, UniProt P62136); experiment: inhibition of protein phosphatase 1 activity – biochemical, fluorescence, dose response (AID 2403);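 also: phosphatase turnover of OMFP into fluorescent 3-O-methylfluorescein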
[4] = target: T2, Serine/threonine-protein phosphatase (Homo sapiens, UniProt Q9BPW0); experiment: Counterscreen for inhibitors of PP1: fluorescence-based biochemical high throughput dose response assay to identify inhibitors of Protein Phosphatase 5 (PP5). [Related pubchem assays: 2034 (Summary (PP5 inhibitors)), 1987 (PP5 inhibitors in singlate), 2235 (PP1 inhibitors in singlate)]
T2 sequence (Q9BPW0 whole entry): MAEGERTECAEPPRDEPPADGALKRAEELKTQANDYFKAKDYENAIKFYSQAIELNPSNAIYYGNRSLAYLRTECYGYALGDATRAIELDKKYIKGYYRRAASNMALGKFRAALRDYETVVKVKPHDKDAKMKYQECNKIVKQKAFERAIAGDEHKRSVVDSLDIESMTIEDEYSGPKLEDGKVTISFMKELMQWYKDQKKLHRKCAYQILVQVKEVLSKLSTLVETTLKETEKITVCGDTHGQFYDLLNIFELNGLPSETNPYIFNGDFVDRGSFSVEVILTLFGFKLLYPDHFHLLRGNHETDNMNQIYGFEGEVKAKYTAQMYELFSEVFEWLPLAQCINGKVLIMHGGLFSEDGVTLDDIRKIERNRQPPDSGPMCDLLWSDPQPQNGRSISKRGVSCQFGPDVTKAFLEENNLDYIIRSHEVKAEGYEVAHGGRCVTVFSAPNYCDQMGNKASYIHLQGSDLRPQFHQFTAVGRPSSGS

Protein skinhead-1 = target: T3, Protein skinhead-1 (Caenorhabditis elegans, UniProt P34707); format: functional
T3 sequence (P34707 whole entry): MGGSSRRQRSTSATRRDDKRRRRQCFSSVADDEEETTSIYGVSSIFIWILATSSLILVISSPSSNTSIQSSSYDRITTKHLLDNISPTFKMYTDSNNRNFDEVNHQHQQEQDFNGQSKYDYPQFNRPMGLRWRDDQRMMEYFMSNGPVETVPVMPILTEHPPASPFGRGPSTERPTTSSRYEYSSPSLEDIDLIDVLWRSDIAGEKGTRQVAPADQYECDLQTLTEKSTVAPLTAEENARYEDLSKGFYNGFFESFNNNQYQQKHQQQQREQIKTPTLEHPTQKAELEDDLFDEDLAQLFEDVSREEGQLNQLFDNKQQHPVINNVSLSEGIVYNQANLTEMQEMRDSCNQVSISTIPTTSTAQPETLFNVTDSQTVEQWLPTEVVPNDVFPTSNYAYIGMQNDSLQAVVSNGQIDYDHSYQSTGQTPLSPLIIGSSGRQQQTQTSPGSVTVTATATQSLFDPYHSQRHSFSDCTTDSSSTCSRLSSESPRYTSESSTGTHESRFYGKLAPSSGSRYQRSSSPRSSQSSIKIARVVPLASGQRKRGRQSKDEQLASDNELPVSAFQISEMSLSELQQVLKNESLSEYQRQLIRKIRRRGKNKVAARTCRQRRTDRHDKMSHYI

[5] = target: T4, Polyadenylate-binding protein 1 (Homo sapiens, UniProt P11940); experiment: MLLE binding blockers, Cy5 peptide tracer – biochemical, fluorescence polarization, Cy5-PAM2 peptide, secondary, miRNA deadenylation inhibitor project, dose response (AID 602260); format: functional; details: read-out: IC50_Mean
Troponin, cardiac muscle = Troponin, cardiac muscle (Homo sapiens, UniProt P19429+P45379+P63316); experiment: Fluorescence-based biochemical high throughput dose response assay for activators of the calcium sensitivity of cardiac Regulated Thin Filaments (RTF). [Related pubchem assays (depositor defined):AID493008, AID493018, AID504382, AID504383]; format: protein-complex assay
[6] = target: T4, Polyadenylate-binding protein 1; experiment: MLLE domain peptide-binding blockers, IC50 – biochemical, fluorescence polarization, FITC-PAM2 peptide, dose response (AID 602259); format: functional; details: read-out: IC50_Mean
[7] = target: G-protein coupled receptor 55 (Homo sapiens, UniProt Q9Y2T6); experiment: inhibition of LPI-stimulated GPR55 beta-arrestin translocation – imaging, U2OS, beta-arrestin-GFP, LPI agonist, primary screen (AID 2013); format: functional;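 also: antagonist potency measured as reduced agonist-driven arrestin aggregation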
[8] = Luminescence Cell-Based Dose Retest to Confirm Inhibitors of Cancer Stem Cells. [Related pubchem assays (depositor defined):AID2717, AID2721]; format: functional; details: Homo sapiens
[9] = target: Voltage-dependent T-type calcium channel subunit alpha-1H (Homo sapiens, UniProt O95180); format: functional;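 also: channel activity triggered by adding a high calcium stimulation buffer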
[10] = target: T5, Nucleotide-binding oligomerization domain-containing protein 1 (Homo sapiens, UniProt Q9Y239); experiment: blockers of NOD1 pathway activity – revised, SAR follow-up (AID 2333); format: functional
T5 sequence (Q9Y239 whole entry): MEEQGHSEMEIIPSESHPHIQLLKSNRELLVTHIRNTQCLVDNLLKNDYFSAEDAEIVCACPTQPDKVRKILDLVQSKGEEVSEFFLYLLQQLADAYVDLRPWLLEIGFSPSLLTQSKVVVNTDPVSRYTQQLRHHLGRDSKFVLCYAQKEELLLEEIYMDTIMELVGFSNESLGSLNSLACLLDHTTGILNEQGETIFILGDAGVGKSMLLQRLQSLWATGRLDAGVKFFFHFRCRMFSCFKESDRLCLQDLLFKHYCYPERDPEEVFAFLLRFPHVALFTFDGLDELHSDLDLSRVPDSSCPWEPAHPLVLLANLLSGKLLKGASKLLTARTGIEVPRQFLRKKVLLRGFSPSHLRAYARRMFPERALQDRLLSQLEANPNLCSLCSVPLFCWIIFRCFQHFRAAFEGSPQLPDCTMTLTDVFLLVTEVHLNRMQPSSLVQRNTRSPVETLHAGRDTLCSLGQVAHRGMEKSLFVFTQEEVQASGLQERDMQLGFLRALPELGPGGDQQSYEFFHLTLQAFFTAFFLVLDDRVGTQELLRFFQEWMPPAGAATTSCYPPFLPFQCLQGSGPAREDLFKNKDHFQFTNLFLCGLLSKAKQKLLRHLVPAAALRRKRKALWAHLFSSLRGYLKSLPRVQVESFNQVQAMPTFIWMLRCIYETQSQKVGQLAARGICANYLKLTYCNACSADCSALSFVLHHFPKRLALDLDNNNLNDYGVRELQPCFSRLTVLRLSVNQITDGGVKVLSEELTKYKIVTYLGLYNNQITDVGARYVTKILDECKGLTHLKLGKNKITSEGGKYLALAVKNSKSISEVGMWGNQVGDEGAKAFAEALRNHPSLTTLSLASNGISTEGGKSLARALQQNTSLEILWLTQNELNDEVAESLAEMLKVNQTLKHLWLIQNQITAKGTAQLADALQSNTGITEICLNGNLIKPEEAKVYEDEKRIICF

[11] = target: Nucleotide-binding oligomerization domain-containing protein 2 (Homo sapiens, UniProt Q9HC29); experiment: PubChem AID 2334; format: functional
Tumor necrosis factor = Tumor necrosis factor (Homo sapiens, UniProt P01375); experiment: analog potency on TNFa NF-kB signaling – cell-based, revised, SAR follow-up (AID 2337); format: functional
HEK293 = experiment: cells; details: Homo sapiens;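 also: cells exposed to compound for 14 hours overnight before viability readout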
Streptococcus = experiment: GAS UMAA2166 growth inhibition – luminescence, BacTiterGlo, counter-screen for streptokinase expression inhibitor project, dose response (AID 1915); format: functional, organism-based;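 also: potency for reduction of bacterial viability or growth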
Streptokinase A = target: T6, Streptokinase A (Streptococcus pyogenes serotype M1, UniProt P10520); experiment: viability-normalized secreted streptokinase activity reduction – plasminogen activation absorbance, OD405, dose response (AID 1914); format: functional, Streptococcus pyogenes M1 GAS;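 also: secreted streptokinase activity via plasminogen activation per viability signal from cell pellet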
T6 sequence (P10520 whole entry): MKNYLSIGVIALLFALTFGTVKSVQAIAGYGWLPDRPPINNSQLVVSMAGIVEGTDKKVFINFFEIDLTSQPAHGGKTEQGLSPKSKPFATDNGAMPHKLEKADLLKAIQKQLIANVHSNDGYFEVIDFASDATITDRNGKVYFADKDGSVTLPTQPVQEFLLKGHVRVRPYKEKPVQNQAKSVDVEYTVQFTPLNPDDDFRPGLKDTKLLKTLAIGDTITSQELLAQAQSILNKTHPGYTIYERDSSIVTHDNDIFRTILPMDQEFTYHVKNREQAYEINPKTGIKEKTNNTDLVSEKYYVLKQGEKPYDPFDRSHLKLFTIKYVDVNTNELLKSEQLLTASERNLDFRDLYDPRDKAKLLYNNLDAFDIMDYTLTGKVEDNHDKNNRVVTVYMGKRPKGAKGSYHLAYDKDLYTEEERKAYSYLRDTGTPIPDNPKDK

[12] = system: Streptococcus sp. 'group A'; experiment: Streptococcus pyogenes SK(-)GAS viability under kanamycin – luminescence, BacTiterGlo, confirmation, counter-screen for streptokinase expression inhibitor project, dose response (AID 1900); format: functional, organism-based
[13] = NIH3T3 cell viability loss – ATP luminescence, mouse fibroblasts, counter-screen, dose response (AID 2010); format: functional, cell-based;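 also: cells exposed to compound for about 90 hours before reading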
[14] = Trypanosoma cruzi growth suppression in host cells – NIH3T3 host cells, beta-gal luminescence, confirmation (AID 2044); format: functional, cell-based;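 also: intracellular parasites grown in NIH/3T3 mouse fibroblasts as host cells; luminescent beta-galactosidase reporter signal from transgenic T. cruzi replicating inside host cells; inhibitors lower the luminescence signal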
[15] = target: Heat shock cognate 71 kDa protein (Homo sapiens, UniProt P11142); experiment: In Vitro Hsc70 Dose Response Fluorescence Polarization Assay. [Related pubchem assays: 1072 ]
[16] = target: Heat shock 70 kDa protein 1A (Homo sapiens, UniProt P0DMV8); experiment: inhibition of Hsp70 binding activity – biochemical, fluorescence polarization, SAR follow-up (AID 1072)
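For AC50 in this document: cells exposed to compound for roughly 70 hours or longer before luminescence read.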

COc1cccc(-c2nnc(NC(=O)c3cccc(F)c3)o2)c1
CC50 [1]: 9 µM (active)
IC50 (cells): 3.03 µM (active)
CC50 [2]: 13 µM (active)

CC1CC(NC(=O)C2C3CCC(O3)C2C(=O)O)CC(C)(C)C1 (stereo not drawn)
IC50 (Coagulation factor XII): > 50 µM (inactive)
IC50 [3]: 2.85 µM (active)
IC50 [4]: 2.78 µM (active)

COC(=O)C1=C(C)NC(=O)/C1=C\N(C)C
IC50 (Protein skinhead-1): > 100 µM (inactive)
IC50 [5]: > 66 µM (inactive)
EC50 (Troponin, cardiac muscle): > 71.5 µM (inactive)
IC50 [6]: > 66 µM (inactive)

N#C/C(=C\c1ccccc1[N+](=O)[O-])C(=O)NCc1ccccc1
IC50 [5]: > 66 µM (inactive)
IC50 [7]: 3.09 µM (active)
IC50 [6]: > 66 µM (inactive)

CCC(c1nnnn1Cc1ccco1)N1CCN(c2cc(Cl)ccc2C)CC1 (stereo not drawn)
AC50 [8]: 3.44 µM (active)
EC50 [9]: 4.19 µM (active)

COc1ccc(C(=O)/C=C/c2cn(CC(O)CN3CCN(C)CC3)c3ccccc23)cc1OC (stereo not drawn)
EC50 (Troponin, cardiac muscle): 12.3 µM (inactive)

CCC(=O)Nc1nc2ccccc2n1Cc1ccccc1
CC50 [1]: > 20 µM (active)
IC50 [10]: > 20 µM (inactive)
IC50 [11]: > 20 µM (inactive)
IC50 (Tumor necrosis factor): > 20 µM (inactive)
IC50 (HEK293): > 20 µM (inactive)
IC50 (cells): 6.75 µM (active)
CC50 [2]: > 40 µM (active)

Cn1nccc1NC(=O)Nc1cccc(Cl)c1Cl
EC50 (Troponin, cardiac muscle): > 71.4 µM (inactive)

COc1ccccc1Sc1nc(-c2ccccn2)ncc1OC
EC50 (Streptococcus): > 150 µM (not active)
EC50 (Streptokinase A): > 150 µM (not active)
EC50 [12]: 27.1 µM (active)
IC50 [3]: 7.52 µM (active)
IC50 [4]: 66.8 µM (not active)

O=C(Nc1ccccc1-c1nnc(SCc2ccc(Cl)cc2)o1)c1ccccc1
EC50 [13]: > 60 µM (not active)
EC50 [14]: 2.22 µM (active)
EC50 [9]: 6.46 µM (active)

O=C(Cc1ccccc1)Nc1nc2ccccc2n1Cc1ccc(Cl)cc1
IC50 [10]: > 20 µM (inactive)
IC50 [11]: > 20 µM (inactive)
IC50 (Tumor necrosis factor): > 20 µM (inactive)
IC50 (HEK293): > 20 µM (inactive)

CC1C2C=CC1C(c1c3ccc(=O)c(O)c-3oc3c(O)c(O)ccc13)C2C(=O)O (stereo not drawn)
IC50 [15]: 5.58 µM (active)
IC50 [16]: 0.634 µM (active)
